Reference: patent publication US10092570B2 (Incyte Corporation, priority 2011, dated 2018)
pIC50: −log10 of the molar value.

Experiments:
[1] = system: Pfeiffer cell line (diffuse large B cell lymphoma); assay: Example B2: Pfeiffer cell proliferation assay; assay type: cell-based; conditions: Pfeiffer cells, [3H]-thymidine incorporation
Method: Pfeiffer cell line (diffuse large B cell lymphoma) are purchased from ATCC (Manassas, Va.) and maintained in the culture medium recommended (RPMI and 10% FBS). To measure the anti-proliferation activity of the compounds, the Pfeiffer cells are plated with the culture medium (2×10^3 cells/well/per 200 μl) into 96-well ultra-low binding plates (Corning, Corning, N.Y.), in the presence or absence of a concentration range of test compounds. After 3-4 days, [^3H]-thymidine (1 μCi/well) (PerkinElmer, Boston, Mass.) in PBS is then added to the cell culture for an additional 12 hours before the incorporated radioactivity is separated by filtration with water through GF/B filters (Packard Bioscience, Meridenj, Conn.) and measured by liquid scintillation counting with a TopCount (Packard Bioscience).

[2] = biological target: PI3Kδ (p110δ/p85α) (Homo sapiens (Human), UniProt O00329); assay: Example A3: PI3Kδ scintillation proximity assay; assay type: biochemical; conditions: scintillation proximity assay, 20 μM ATP, 4 nM PI3Kδ; read-out: PI3Kδ SPA IC50
Method in brief: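 p110δ/p85α (4 nM) phosphorylated 20 μM PIP2 with 20 μM ATP plus [γ-33P]ATP in MOPS pH 6.7, MgCl2, DTT, CHAPS, 0.5% DMSO, at RT. Stopped with EDTA/excess ATP, product captured on WGA SPA beads overnight and counted; IC50 from percent control activity versus log inhibitor.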

Sequence of PI3Kδ (p110δ/p85α) (O00329 whole entry): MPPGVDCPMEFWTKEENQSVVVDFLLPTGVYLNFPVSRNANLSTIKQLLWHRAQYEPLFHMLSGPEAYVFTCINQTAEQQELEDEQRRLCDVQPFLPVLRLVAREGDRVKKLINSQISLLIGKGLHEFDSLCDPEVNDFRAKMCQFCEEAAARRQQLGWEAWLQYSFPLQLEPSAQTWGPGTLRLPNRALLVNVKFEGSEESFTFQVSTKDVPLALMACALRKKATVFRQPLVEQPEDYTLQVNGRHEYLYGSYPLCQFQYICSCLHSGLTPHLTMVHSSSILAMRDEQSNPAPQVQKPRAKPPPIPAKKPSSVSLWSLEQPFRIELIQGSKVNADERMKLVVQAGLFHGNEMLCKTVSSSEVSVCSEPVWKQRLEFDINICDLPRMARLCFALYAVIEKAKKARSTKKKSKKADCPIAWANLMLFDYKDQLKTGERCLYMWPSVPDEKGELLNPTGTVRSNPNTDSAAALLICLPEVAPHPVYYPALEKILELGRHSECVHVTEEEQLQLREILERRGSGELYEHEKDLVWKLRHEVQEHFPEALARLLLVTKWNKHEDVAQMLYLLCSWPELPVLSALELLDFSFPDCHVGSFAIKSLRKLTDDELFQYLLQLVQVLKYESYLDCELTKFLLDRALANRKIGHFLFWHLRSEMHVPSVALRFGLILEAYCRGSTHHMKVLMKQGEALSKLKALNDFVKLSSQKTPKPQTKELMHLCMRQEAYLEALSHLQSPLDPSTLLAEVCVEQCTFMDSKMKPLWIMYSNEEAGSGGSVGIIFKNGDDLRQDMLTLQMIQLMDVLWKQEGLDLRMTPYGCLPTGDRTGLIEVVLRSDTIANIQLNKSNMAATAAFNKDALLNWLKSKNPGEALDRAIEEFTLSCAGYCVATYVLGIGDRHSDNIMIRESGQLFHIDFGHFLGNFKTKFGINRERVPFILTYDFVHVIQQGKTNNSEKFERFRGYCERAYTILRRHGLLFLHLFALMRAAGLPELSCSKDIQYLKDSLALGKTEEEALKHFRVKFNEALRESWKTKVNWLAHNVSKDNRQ
Sequence of PI3Kδ (p110δ/p85α) (P27986 whole entry partner): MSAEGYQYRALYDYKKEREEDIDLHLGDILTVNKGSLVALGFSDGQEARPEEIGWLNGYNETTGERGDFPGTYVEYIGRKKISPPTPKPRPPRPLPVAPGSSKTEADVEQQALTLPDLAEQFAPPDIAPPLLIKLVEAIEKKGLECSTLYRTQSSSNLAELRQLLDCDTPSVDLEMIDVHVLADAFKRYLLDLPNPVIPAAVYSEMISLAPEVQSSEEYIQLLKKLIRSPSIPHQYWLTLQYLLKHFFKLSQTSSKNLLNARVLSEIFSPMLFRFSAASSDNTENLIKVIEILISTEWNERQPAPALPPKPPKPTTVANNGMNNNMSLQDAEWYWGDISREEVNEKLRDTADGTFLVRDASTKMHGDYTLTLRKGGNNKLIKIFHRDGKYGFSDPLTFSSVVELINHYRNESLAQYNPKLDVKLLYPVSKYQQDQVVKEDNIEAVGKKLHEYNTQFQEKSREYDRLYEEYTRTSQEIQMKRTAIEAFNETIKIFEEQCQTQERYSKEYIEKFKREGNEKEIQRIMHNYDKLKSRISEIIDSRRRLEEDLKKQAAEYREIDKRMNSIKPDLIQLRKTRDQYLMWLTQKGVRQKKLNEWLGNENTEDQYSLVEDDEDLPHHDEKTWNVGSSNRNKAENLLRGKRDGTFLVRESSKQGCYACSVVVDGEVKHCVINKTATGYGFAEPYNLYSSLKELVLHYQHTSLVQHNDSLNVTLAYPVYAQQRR

SMILES	pIC50 ([1]; Homo sapiens, Pfeiffer)	pIC50 [2]	pIC50 [1]
CCOc1c(C(C)n2nc(C)c3c(N)ncnc32)cc(Cl)c(F)c1C1CN(CC(C)(C)O)C1 (racemic) [Example 140, 1-(3-{3-[1-(4-Amino-3-methyl-1H-pyrazolo[3,4-d]pyrimidin-1-yl)ethyl]-5-chloro-2-ethoxy-6-fluorophenyl}azetidin-1-yl)-2-methylpropan-2-ol]	> 8.00	> 8.00	
COc1c(C(C)n2nc(C)c3c(N)ncnc32)cc(Cl)c(C)c1C1CCN(C)CC1 (racemic) [Example 163, 1-{1-[5-Chloro-2-methoxy-4-methyl-3-(1-methylpiperidin-4-yl)phenyl]ethyl}-3-methyl-1H-pyrazolo[3,4-d]pyrimidin-4-amine]	7.30 to 8.00	> 8.00	
COc1c(C(C)n2nc(C)c3c(N)ncnc32)cc(Cl)c(C)c1C1CN(C[C@@H](C)O)C1 (single isomer, unassigned) [Example 103]		> 8.00	7.30 to 8.00
COc1c(C(C)n2nc(C)c3c(N)ncnc32)cc(Cl)c(C#N)c1C1CN(C)C1 (single isomer, unassigned) [Example 262, 4-[1-(4-Amino-3-methyl-1H-pyrazolo[3,4-d]pyrimidin-1-yl)ethyl]-6-chloro-3-methoxy-2-(1-methylazetidin-3-yl)benzonitrile]	> 8.00	> 8.00	
COc1c(C(C)n2nc(C)c3c(N)ncnc32)cc(Cl)c(C)c1C1CN(CC(C)O)C1 (stereo in doubt) [Example 102, (2S)-1-(3-{3-[1-(4-Amino-3-methyl-1H-pyrazolo[3,4-d]pyrimidin-1-yl)ethyl]-5-chloro-2-methoxy-6-methylphenyl}azetidin-1-yl)propan-2-ol]	> 8.00	> 8.00	
COc1c(C(C)n2nc(C)c3c(N)ncnc32)cc(Cl)c(F)c1C1CN(C(C)C)C1 (stereo not drawn) [67 (1st peak), 1-{1-[5-Chloro-4-fluoro-3-(1-isopropylazetidin-3-yl)-2-methoxyphenyl]ethyl}-3-methyl-1H-pyrazolo[3,4-d]pyrimidin-4-amine]	> 8.00		
CCOc1c(C(C)n2nc(C)c3c(N)ncnc32)cc(Cl)c(C)c1C1CN(C[C@H](C)O)C1 (stereo partly drawn) [Example 96, (2S)-1-(3-{3-[1-(4-Amino-3-methyl-1H-pyrazolo[3,4-d]pyrimidin-1-yl)ethyl]-5-chloro-2-ethoxy-6-methylphenyl}azetidin-1-yl)propan-2-ol bis(trifluoroacetate)]	> 8.00	> 8.00	
CCOc1c(C(C)n2nc(C)c3c(N)ncnc32)cc(Cl)c(F)c1C1CN(C(C)C)C1 (stereo not drawn) [Example 139, 1-{1-[5-Chloro-2-ethoxy-4-fluoro-3-(1-isopropylazetidin-3-yl)phenyl]ethyl}-3-methyl-1H-pyrazolo[3,4-d]pyrimidin-4-amine]	> 8.00	> 8.00	
CCOc1c(C(C)n2nc(C)c3c(N)ncnc32)cc(Cl)c(F)c1C1CN(C[C@@H](C)O)C1 (stereo partly drawn) [Example 142, (2R)-1-(3-{3-[1-(4-Amino-3-methyl-1H-pyrazolo[3,4-d]pyrimidin-1-yl)ethyl]-5-chloro-2-ethoxy-6-fluorophenyl}azetidin-1-yl)propan-2-ol]	> 8.00	> 8.00	
COc1c(C(C)n2nc(C)c3c(N)ncnc32)cc(Cl)c(C)c1-c1ccc(C(=O)N(C)C)nc1 (stereo not drawn) [Example 167, 5-(3-(1-(4-Amino-3-methyl-1H-pyrazolo[3,4-d]pyrimidin-1-yl)ethyl)-5-chloro-2-methoxy-6-methylphenyl)-N,N-dimethylpicolinamide bis(2,2,2-trifluoroacetate)]	> 8.00		
COc1c(C(C)n2nc(C(F)F)c3c(N)ncnc32)cc(Cl)c(C)c1-c1ccc(C(=O)N(C)C)nc1 (stereo not drawn) [Example 191, 5-(3-{1-[4-Amino-3-(difluoromethyl)-1H-pyrazolo[3,4-d]pyrimidin-1-yl]ethyl}-5-chloro-2-methoxy-6-methylphenyl)-N,N-dimethylpyridine-2-carboxamide]	> 8.00		
CCOc1c(C(C)n2nc(C)c3c(N)ncnc32)cc(Cl)c(C)c1-c1ccc(C(=O)N(C)C)nc1 (stereo not drawn) [Example 195, 5-(3-(1-(4-Amino-3-methyl-1H-pyrazolo[3,4-d]pyrimidin-1-yl)ethyl)-5-chloro-2-ethoxy-6-methylphenyl)-N,N-dimethylpicolinamide bis(2,2,2-trifluoroacetate)]	> 8.00		
COc1c(C(C)n2nc(C)c3c(N)ncnc32)cc(Cl)c(C)c1-c1ccnc(C(=O)N(C)C)c1 (stereo not drawn) [Example 200, 4-(3-(1-(4-Amino-3-methyl-1H-pyrazolo[3,4-d]pyrimidin-1-yl)ethyl)-5-chloro-2-methoxy-6-methylphenyl)-N,N-dimethylpicolinamide bis(2,2,2-trifluoroacetate)]	> 8.00		
CCOc1c(C(C)n2nc(C)c3c(N)ncnc32)cc(Cl)c(C#N)c1C1CN(C[C@@H](C)O)C1 (stereo partly drawn) [Example 221, 4-[1-(4-Amino-3-methyl-1H-pyrazolo[3,4-d]pyrimidin-1-yl)ethyl]-6-chloro-3-ethoxy-2-{1-[(2R)-2-hydroxypropyl]azetidin-3-yl}benzonitrile]	> 8.00	> 8.00	
CCOc1c(C(C)n2nc(C)c3c(N)ncnc32)cc(C)c(C#N)c1-c1ccc(C(=O)N(C)C)nc1 (stereo not drawn) [Example 314, 5-{3-[1-(4-amino-3-methyl-1H-pyrazolo[3,4-d]pyrimidin-1-yl)ethyl]-6-cyano-2-ethoxy-5-methylphenyl}-N,N-dimethylpyridine-2-carboxamide]	> 8.00		

The next lines start with the values.

pIC50 ([1]; Homo sapiens, Pfeiffer)	pIC50 [2]	pIC50 [1]	SMILES
7.30 to 8.00	> 8.00		COc1c(C(C)n2nc(C)c3c(N)ncnc32)cc(Cl)c(C)c1C1CN(CCO)C1 (single isomer, unassigned) [Example 104, 2-(3-{3-[1-(4-Amino-3-methyl-1H-pyrazolo[3,4-d]pyrimidin-1-yl)ethyl]-5-chloro-2-methoxy-6-methylphenyl}azetidin-1-yl)ethanol]
> 8.00	> 8.00		CCOc1c(C(C)n2nc(C)c3c(N)ncnc32)cc(Cl)c(C#N)c1C1CN(C)C1 (single isomer, unassigned) [Example 213, 4-[1-(4-Amino-3-methyl-1H-pyrazolo[3,4-d]pyrimidin-1-yl)ethyl]-6-chloro-3-ethoxy-2-(1-methylazetidin-3-yl)benzonitrile]
> 8.00	> 8.00		COc1c(C(C)n2nc(C)c3c(N)ncnc32)cc(Cl)c(C#N)c1C1CN(CCO)C1 (single isomer, unassigned) [Example 268, 4-[1-(4-Amino-3-methyl-1H-pyrazolo[3,4-d]pyrimidin-1-yl)ethyl]-6-chloro-2-[1-(2-hydroxyethyl)azetidin-3-yl]-3-methoxybenzonitrile]
> 8.00	> 8.00		COc1c(C(C)n2nc(C)c3c(N)ncnc32)cc(C)c(C#N)c1C1CN(C[C@H](C)O)C1 (single isomer, unassigned) [Example 315]
> 8.00	> 8.00		CCOc1c(C(C)n2nc(C)c3c(N)ncnc32)cc(Cl)c(F)c1C1CNC(=O)O1 (single isomer, unassigned) [Example 357, 5-{3-[1-(4-amino-3-methyl-1H-pyrazolo[3,4-d]pyrimidin-1-yl)ethyl]-5-chloro-2-ethoxy-6-fluorophenyl}-1,3-oxazolidin-2-one]
> 8.00	> 8.00		COc1c(C(C)n2nc(C)c3c(N)ncnc32)cc(Cl)c(C)c1C1CN(C(C)CF)C1 (stereo not drawn) [Example 114, 1-(1-{5-Chloro-3-[1-(2-fluoro-1-methylethyl)azetidin-3-yl]-2-methoxy-4-methylphenyl}ethyl)-3-methyl-1H-pyrazolo[3,4-d]pyrimidin-4-amine]
> 8.00			CCOc1c(C(C)n2nc(C)c3c(N)ncnc32)cc(Cl)c(F)c1C1CN(C[C@H](C)O)C1 (stereo partly drawn) [Example 149, (2S)-1-(3-{3-[1-(4-Amino-3-methyl-1H-pyrazolo[3,4-d]pyrimidin-1-yl)ethyl]-5-chloro-2-ethoxy-6-fluorophenyl}azetidin-1-yl)propan-2-ol]
> 8.00	> 8.00		CCOc1c(C(C)n2nc(C(F)F)c3c(N)ncnc32)cc(Cl)c(F)c1C1CN(C[C@H](C)O)C1 (stereo partly drawn) [Example 154, (2S)-1-[3-(3-{1-[4-Amino-3-(difluoromethyl)-1H-pyrazolo[3,4-d]pyrimidin-1-yl]ethyl}-5-chloro-2-ethoxy-6-fluorophenyl)azetidin-1-yl]propan-2-ol]
7.30 to 8.00	> 8.00		COc1c(C(C)n2nc(C)c3c(N)ncnc32)cc(Cl)c(C)c1C1CN([C@@H](C)CO)C1 (stereo partly drawn) [Example 157]
> 8.00			CCOc1c(C(C)n2nc(C)c3c(N)ncnc32)cc(Cl)c(C#N)c1C1CN(CCO)C1 (stereo not drawn) [Example 219, 4-[1-(4-Amino-3-methyl-1H-pyrazolo[3,4-d]pyrimidin-1-yl)ethyl]-6-chloro-3-ethoxy-2-[1-(2-hydroxyethyl)azetidin-3-yl]benzonitrile]
> 8.00	> 8.00		CCOc1c(C(C)n2nc(C)c3c(N)ncnc32)cc(Cl)c(C#N)c1C1CN(C[C@H](C)O)C1 (stereo partly drawn) [Example 220, 4-[1-(4-Amino-3-methyl-1H-pyrazolo[3,4-d]pyrimidin-1-yl)ethyl]-6-chloro-3-ethoxy-2-{1-[(2S)-2-hydroxypropyl]azetidin-3-yl}benzonitrile]
> 8.00			COc1c(C(C)n2nc(C)c3c(N)ncnc32)cc(Cl)c(C#N)c1-c1ccc(C(=O)N(C)C)nc1 (stereo not drawn) [Example 313, 5-{3-[1-(4-amino-3-methyl-1H-pyrazolo[3,4-d]pyrimidin-1-yl)ethyl]-5-chloro-6-cyano-2-methoxyphenyl}-N,N-dimethylpyridine-2-carboxamide]
